# Experimental data: patent US4985595A, “Aminobenzamide derivatives” (Daiichi Pharmaceutical Co., Ltd., priority 1984, dated 1991)
# Where two headings read alike, the source gives them in different places.
# Columns and labels:
# stress ulcer in rat = assay: Inhibitory effect on stress ulcer in rat (restraint and water-immersion stress method); assay type: in vivo; conditions: read-out: Inhibitory Effect (%)
# Protocol: INHIBITORY EFFECT ON STRESS ULCER IN RAT
# The compounds of this invention were administered orally to 7 rats weighing about 300 g in each group. After 30 minutes, they were immobilized and immersed in water at 21° C. for 7 hours to prepare the stress ulcer.
# in vivo = conditions: mouse, po, mice, orally administered, read-out: acute toxicity (LD50)
# [1] = disclosed in Japanese Patent Application (OPI) No. 18947/81; cited from earlier work
# [2] = 50 mg/kg, oral, rat, 30 minutes before immobilization and immersion in water at 21° C. for 7 hours, *P < 0.05, **P < 0.01
# [3] = 100 mg/kg, oral, rat, 30 minutes before immobilization and immersion in water at 21° C. for 7 hours, *P < 0.05, **P < 0.01
# [4] = 200 mg/kg, oral, rat, 30 minutes before immobilization and immersion in water at 21° C. for 7 hours, *P < 0.05, **P < 0.01
SMILES,"inhibition in vivo at 50 mg/kg (stress ulcer in rat; Rattus norvegicus, po, 7 h) [%]","inhibition in vivo at 100 mg/kg (stress ulcer in rat; Rattus norvegicus, po, 7 h) [%]","inhibition in vivo at 200 mg/kg (stress ulcer in rat; Rattus norvegicus, po, 7 h) [%]",LD50 (in vivo) [mg/kg],inhibition in vivo at 50 mg/kg (stress ulcer in rat; [2]) [%],inhibition in vivo at 100 mg/kg (stress ulcer in rat; [3]) [%],inhibition in vivo at 200 mg/kg (stress ulcer in rat; [4]) [%],chemical and physical properties (stability) [1]
COc1ccc(CCNC(=O)CN(CS(=O)(=O)[O-])c2cccc(C(N)=O)c2)cc1OC.[Na+],34,36,42,> 2000,,,,
CNC(=O)c1cccc(NCC(=O)NCCc2ccc(OC)c(OC)c2)c1 [Compound a],,,,,46,60,72,
"CCNC(=O)c1cccc(NCC(=O)NCCc2ccc(OC)c(OC)c2)c1 [Compound b, 3-((2-((2-(3,4-dimethoxyphenyl)ethyl)amino)-2-oxoethyl)amino)-N-ethylbenzamide]",,,,,30,53,63,
"CNC(=O)c1ccc(OC)cc1NCC(=O)NCCc1ccc(OC)c(OC)c1 [Compound c, 2-((2-((2-(3,4-dimethoxyphenyl)ethyl)amino)-2-oxoethyl)amino)-4-methoxy-N-methylbenzamide]",,,,> 2000,33,36,69,
"COc1ccc(CCNC(=O)CNc2cccc(C(=O)N(C)C)c2)cc1OC [Compound e, 3((2-((2-(3,4-Dimethoxyphenyl)ethyl)amino)-2-oxoethyl)amino)-N,N-dimethylenzamide]",,,,,39,55,64,
"COc1ccc(CCNC(=O)CNc2cccc(C(=O)N3CCOCC3)c2)cc1OC [Compound f, N(2-(3,4-Dimethoxyphenyl)ethyl)-2-((3-morpholinocarbonylphenyl)amino)acetmide]",,,,,10,53,86,
CNC(=O)c1cc(OC)ccc1NCC(=O)NCCc1ccc(OC)c(OC)c1 [Compound g],,,,,45,41,65,
"COc1ccc(CCNC(=O)CNc2cccc(C(N)=O)c2)cc1OC.O.O.O [Control, 2-(3-carbamoylphenylamino)-N-(3,4-dimethoxyphenethyl)acetamide trihydrate]",,,,,,,,stable chemical and physical properties
